Some targets named below: Mu-type opioid receptor (Homo sapiens, UniProt P35372); D(1A) dopamine receptor (Homo sapiens, UniProt P21728); Histamine H3 receptor (Homo sapiens, UniProt Q9Y5N1).
For experiment [1], the target named is Voltage-gated inwardly rectifying potassium channel KCNH2 (Homo sapiens, UniProt Q12809). The class given is functional. As to conditions: read-out: AC50.
For experiment [2], the target named is cGMP-inhibited 3',5'-cyclic phosphodiesterase 3A (Homo sapiens, UniProt Q14432). The class given is functional.
For experiment [3], the target named is T1, Thromboxane A2 receptor (Homo sapiens, UniProt P21731).
T1 sequence (P21731 whole entry): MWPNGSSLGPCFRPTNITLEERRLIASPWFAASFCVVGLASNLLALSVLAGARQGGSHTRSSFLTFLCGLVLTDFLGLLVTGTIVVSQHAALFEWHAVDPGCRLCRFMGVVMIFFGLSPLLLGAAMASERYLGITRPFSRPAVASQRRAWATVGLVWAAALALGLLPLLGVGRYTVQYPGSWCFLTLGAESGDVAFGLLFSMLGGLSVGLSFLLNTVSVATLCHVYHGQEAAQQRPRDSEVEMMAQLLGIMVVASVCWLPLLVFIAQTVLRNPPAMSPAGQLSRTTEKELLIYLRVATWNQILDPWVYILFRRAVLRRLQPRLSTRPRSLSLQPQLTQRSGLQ
The class given is functional, cell-based.

In experiment [4] the target is T2, Alpha-2A adrenergic receptor (Homo sapiens, UniProt P08913).
T2 sequence (P08913 whole entry): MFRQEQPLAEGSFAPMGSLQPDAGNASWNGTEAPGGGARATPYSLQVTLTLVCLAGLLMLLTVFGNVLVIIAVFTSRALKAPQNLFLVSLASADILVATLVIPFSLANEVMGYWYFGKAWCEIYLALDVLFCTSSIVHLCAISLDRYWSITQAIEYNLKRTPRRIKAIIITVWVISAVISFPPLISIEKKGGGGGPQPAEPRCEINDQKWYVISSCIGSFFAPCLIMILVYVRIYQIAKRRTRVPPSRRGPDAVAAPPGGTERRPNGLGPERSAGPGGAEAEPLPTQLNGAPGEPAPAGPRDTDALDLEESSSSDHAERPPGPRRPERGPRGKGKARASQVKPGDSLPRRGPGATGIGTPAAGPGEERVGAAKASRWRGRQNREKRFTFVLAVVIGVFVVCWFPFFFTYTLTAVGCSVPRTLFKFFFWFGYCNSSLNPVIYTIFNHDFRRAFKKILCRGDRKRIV

In experiment [5] the target is Sodium-dependent dopamine transporter (Homo sapiens, UniProt Q01959).
Experiment [6] concerns the target T3, Muscarinic acetylcholine receptor M2 (Homo sapiens, UniProt P08172).
T3 sequence (P08172 whole entry): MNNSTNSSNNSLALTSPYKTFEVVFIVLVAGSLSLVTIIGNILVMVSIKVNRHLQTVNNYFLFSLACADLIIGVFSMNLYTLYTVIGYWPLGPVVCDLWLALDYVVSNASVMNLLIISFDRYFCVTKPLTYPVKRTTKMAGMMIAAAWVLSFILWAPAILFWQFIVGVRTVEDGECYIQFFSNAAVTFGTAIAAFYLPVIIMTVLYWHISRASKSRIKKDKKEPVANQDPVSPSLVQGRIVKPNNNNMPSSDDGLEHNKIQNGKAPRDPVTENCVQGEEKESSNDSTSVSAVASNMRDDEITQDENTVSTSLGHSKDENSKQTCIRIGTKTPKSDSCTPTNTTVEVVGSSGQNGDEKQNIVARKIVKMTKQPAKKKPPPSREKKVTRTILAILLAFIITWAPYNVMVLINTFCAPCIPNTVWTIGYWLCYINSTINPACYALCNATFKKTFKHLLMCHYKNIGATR

The target in a further experiment is Acetylcholinesterase (Homo sapiens, UniProt P22303). It is filed as functional.
The target in another experiment is Prothrombin (Homo sapiens, UniProt P00734). It is filed as functional.
The target of experiment [7] is Prostaglandin G/H synthase 1 (Homo sapiens, UniProt P23219). It is filed as functional.
In experiment [8] the target is T1, Thromboxane A2 receptor. The class given is functional, cell-based. The source holds these as a separate data set.
For experiment [9], the target named is T4, Alpha-1A adrenergic receptor (Homo sapiens, UniProt P35348).
T4 sequence (P35348 whole entry): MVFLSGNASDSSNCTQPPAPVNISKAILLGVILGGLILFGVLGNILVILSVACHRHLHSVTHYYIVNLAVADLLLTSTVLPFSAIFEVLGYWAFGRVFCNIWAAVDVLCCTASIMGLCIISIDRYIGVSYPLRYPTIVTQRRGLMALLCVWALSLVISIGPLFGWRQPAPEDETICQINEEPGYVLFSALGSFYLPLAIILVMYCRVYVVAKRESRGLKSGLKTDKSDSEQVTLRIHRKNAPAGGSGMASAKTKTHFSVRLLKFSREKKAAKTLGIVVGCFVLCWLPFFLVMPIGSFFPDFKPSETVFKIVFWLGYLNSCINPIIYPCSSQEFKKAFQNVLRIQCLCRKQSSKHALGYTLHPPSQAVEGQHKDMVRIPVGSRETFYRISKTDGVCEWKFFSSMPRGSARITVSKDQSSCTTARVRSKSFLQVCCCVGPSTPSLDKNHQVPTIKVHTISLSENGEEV
The class given is functional, cell-based.

Bounds are passed on as bounds.
Note: assay procedure not described here.

Sequence of Acetylcholinesterase (P22303 whole entry): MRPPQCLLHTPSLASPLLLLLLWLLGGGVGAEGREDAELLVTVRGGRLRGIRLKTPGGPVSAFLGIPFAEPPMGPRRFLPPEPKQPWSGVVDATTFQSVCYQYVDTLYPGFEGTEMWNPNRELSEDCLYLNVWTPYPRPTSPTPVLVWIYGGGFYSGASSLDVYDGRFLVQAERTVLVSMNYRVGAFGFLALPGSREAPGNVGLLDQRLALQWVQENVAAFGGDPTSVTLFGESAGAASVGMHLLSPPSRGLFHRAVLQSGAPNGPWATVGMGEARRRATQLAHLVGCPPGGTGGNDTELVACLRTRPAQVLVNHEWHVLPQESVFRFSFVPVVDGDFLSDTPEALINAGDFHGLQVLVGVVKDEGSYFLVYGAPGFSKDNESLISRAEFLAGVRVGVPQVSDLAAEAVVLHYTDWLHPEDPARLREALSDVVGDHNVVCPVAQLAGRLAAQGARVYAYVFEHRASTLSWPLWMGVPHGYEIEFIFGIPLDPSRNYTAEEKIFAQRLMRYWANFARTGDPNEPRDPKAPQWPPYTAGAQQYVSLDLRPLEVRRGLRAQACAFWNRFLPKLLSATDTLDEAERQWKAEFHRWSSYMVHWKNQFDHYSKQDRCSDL
Sequence of cGMP-inhibited 3',5'-cyclic phosphodiesterase 3A (Q14432 whole entry): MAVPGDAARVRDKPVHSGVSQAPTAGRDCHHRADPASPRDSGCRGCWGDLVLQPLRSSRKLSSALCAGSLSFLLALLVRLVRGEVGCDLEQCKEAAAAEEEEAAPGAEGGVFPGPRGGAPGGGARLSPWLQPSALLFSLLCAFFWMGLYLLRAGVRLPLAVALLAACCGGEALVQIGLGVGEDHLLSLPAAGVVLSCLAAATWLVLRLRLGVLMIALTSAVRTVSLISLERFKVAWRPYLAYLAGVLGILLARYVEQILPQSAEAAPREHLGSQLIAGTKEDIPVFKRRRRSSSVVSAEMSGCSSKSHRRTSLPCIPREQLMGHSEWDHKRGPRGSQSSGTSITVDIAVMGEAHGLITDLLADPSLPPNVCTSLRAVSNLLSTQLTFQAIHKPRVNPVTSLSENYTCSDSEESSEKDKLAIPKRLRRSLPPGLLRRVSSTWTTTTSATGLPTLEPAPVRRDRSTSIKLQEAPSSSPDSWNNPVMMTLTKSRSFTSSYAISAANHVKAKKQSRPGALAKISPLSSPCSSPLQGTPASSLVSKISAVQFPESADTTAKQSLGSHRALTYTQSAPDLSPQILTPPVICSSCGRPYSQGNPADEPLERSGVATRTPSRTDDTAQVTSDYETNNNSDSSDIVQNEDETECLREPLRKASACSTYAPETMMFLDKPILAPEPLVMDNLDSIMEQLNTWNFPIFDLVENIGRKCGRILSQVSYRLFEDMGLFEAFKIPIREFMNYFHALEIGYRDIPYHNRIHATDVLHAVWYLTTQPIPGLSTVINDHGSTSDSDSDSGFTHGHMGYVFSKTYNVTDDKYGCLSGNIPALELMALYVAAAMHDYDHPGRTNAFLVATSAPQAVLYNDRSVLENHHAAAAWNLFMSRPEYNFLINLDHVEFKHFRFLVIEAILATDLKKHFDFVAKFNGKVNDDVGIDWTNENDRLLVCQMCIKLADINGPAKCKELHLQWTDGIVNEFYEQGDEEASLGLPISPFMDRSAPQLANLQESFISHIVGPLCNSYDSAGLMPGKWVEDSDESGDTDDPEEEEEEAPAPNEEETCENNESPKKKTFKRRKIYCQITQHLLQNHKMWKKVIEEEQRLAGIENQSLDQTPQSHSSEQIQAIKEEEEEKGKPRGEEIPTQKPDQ
Sequence of Histamine H3 receptor (Q9Y5N1 whole entry): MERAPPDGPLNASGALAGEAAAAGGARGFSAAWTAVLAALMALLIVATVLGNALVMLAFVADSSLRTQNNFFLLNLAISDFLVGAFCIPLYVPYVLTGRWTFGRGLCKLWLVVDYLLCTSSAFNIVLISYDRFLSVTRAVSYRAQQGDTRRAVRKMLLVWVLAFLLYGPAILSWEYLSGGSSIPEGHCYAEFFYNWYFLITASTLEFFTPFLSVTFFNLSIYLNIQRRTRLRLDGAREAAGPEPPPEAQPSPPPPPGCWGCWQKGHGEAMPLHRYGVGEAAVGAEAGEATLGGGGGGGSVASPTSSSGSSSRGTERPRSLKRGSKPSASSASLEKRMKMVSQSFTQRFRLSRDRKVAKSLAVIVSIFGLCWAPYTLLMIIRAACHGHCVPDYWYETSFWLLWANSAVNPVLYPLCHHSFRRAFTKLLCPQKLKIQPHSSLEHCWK
Sequence of Prostaglandin G/H synthase 1 (P23219 whole entry): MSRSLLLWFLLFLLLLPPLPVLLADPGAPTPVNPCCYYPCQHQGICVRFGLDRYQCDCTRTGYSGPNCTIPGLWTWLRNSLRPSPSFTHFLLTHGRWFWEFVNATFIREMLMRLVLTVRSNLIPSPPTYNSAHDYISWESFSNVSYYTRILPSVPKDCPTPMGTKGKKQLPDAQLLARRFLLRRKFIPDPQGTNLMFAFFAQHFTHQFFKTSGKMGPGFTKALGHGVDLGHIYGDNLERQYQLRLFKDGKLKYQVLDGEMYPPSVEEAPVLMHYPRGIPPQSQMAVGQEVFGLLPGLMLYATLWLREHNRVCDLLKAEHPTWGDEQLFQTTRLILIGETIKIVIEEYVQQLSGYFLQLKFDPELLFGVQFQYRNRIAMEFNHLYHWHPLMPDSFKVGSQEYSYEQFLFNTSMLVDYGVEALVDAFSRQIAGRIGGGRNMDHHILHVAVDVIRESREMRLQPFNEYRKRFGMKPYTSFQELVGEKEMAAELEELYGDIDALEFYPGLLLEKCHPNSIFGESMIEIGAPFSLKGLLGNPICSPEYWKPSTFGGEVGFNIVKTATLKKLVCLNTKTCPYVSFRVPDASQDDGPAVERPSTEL
Sequence of Sodium-dependent dopamine transporter (Q01959 whole entry): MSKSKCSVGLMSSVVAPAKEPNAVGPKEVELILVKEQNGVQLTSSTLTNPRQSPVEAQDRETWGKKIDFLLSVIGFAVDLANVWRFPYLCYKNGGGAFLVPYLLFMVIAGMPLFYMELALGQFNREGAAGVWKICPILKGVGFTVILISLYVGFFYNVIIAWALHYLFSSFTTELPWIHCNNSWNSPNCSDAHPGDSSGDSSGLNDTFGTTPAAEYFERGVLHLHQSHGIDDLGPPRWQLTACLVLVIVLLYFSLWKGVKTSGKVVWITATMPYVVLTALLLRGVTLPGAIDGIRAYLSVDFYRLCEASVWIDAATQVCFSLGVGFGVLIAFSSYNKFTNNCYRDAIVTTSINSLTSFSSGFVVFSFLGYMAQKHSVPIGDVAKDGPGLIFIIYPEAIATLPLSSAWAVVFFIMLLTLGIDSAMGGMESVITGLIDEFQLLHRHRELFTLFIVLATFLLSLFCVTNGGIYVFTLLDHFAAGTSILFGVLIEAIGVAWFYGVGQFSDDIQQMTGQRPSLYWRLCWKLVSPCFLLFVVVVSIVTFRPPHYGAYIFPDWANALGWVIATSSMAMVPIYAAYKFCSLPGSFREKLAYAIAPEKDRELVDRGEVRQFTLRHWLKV
Sequence of Voltage-gated inwardly rectifying potassium channel KCNH2 (Q12809 whole entry): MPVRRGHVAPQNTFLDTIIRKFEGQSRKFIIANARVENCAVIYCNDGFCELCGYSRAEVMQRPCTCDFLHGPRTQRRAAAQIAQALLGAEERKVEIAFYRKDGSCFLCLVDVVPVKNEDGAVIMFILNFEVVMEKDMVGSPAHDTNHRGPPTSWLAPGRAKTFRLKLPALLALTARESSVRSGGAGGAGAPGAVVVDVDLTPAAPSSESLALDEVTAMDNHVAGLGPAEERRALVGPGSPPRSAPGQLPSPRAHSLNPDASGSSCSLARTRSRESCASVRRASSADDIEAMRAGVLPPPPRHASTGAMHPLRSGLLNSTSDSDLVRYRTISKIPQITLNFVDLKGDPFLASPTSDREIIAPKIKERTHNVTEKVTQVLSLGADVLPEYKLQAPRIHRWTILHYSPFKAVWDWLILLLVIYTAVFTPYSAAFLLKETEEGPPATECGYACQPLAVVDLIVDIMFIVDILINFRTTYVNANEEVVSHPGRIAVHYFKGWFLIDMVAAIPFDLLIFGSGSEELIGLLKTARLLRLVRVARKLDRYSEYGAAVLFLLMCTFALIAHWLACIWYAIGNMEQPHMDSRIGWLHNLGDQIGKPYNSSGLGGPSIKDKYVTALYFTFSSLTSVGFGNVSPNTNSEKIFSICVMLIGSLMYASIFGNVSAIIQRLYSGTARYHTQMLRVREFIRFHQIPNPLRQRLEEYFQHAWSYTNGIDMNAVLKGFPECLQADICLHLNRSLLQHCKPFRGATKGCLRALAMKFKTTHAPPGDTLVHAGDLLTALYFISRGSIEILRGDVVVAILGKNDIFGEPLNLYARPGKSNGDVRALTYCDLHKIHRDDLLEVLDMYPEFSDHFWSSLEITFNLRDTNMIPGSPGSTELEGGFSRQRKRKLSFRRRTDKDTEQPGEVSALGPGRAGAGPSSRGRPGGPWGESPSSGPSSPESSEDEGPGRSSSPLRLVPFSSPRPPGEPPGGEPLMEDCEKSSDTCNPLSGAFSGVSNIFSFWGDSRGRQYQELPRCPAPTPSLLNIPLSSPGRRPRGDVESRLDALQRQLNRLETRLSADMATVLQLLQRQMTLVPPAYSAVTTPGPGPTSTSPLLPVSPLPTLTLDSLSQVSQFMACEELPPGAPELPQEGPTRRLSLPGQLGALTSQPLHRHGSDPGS
Sequence of D(1A) dopamine receptor (P21728 whole entry): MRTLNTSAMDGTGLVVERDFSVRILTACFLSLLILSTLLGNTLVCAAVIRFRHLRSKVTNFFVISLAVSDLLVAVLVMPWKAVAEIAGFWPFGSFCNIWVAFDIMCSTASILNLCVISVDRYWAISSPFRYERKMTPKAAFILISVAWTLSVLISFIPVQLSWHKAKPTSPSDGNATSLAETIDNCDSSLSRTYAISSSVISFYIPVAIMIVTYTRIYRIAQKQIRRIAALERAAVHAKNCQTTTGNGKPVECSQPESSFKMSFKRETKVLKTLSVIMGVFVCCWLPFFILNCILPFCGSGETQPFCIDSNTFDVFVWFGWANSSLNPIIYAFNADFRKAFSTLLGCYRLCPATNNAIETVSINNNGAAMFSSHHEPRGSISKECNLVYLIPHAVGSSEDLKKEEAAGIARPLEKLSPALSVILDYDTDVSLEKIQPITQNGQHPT

The term AC50 denotes the concentration at which the activity in the assay is half-maximal. On to `C[C@]12CC[C@H](O)CC1=CC[C@@H]1[C@@H]2CC[C@]2(C)C(c3cccnc3)=CC[C@@H]12` [ABIRATERONE], for which the AC50 in experiment [1] was > 30 µM.
Regarding `CN(C)C(=O)Oc1cc(OC(=O)N(C)C)cc(C(O)CNC(C)(C)C)c1` (configuration not stated) [BAMBUTEROL], the AC50 in experiment [1] came to 16 µM.
As to `CO[C@@]1(NC(=O)CSCC#N)C(=O)N2C(C(=O)O)=C(CSc3nnnn3C)CS[C@@H]21` [CEFMETAZOLE], the AC50 (in [2]; at Thromboxane A2 receptor [3]; in experiment [4]; in [5]; on Mu-type opioid receptor; in [6]) was > 30 µM in each case. Moreover, the AC50 (on Acetylcholinesterase; on Prothrombin; at D(1A) dopamine receptor; in [7]; at Thromboxane A2 receptor [8]; on Histamine H3 receptor) was > 30 µM each time. Besides, the AC50 in experiment [1] is > 30 µM.
As to `NS(=O)(=O)c1cc(C2(O)NC(=O)c3ccccc32)ccc1Cl` (configuration not stated) [CHLORTHALIDONE], in experiment [1], the AC50 is > 30 µM.
As for `O=C(O)CC(O)(CC(=O)O)C(=O)O` [CITRIC ACID], the AC50 (in experiment [2]; at Thromboxane A2 receptor [3]; in experiment [4]; in [5]; on Mu-type opioid receptor; in [6]) was > 30 µM each time. Also, the AC50 (on Acetylcholinesterase; at Prothrombin; at D(1A) dopamine receptor; in [7]; in experiment [9]; on Thromboxane A2 receptor [8]) was > 30 µM throughout. In addition, the AC50 on Histamine H3 receptor is > 30 µM.
With `CC[C@H]1OC(=O)[C@H](C)[C@@H](O[C@H]2C[C@@](C)(OC)[C@@H](O)[C@H](C)O2)[C@H](C)[C@@H](O[C@@H]2O[C@H](C)C[C@H](N(C)C)[C@H]2O)[C@](C)(OC)C[C@@H](C)C(=O)[C@H](C)[C@@H](O)[C@]1(C)O` [CLARITHROMYCIN], the AC50 (in experiment [2]; at Thromboxane A2 receptor [3]; in [4]; in experiment [5]; at Mu-type opioid receptor; in experiment [6]) was > 30 µM in each case. The AC50 (at Acetylcholinesterase; on Prothrombin; at D(1A) dopamine receptor; in experiment [7]; in experiment [9]; at Thromboxane A2 receptor [8]) was > 30 µM in each case. For the same compound, the AC50 (on Histamine H3 receptor; in experiment [1]) was > 30 µM throughout.
Regarding `C[C@@H]1CCC[C@H](C)N1NC(=O)c1ccc(Cl)c(S(N)(=O)=O)c1` [CLOPAMIDE], in experiment [1], the AC50 was > 30 µM.
The same measure, in the same setting: the same measure for `COc1ccc2c(c1)[C@]13CCCC[C@@H]1[C@H](C2)N(C)CC3` [DEXTROMETHORPHAN]: 21.1 µM; for `O=c1oc2ccccc2c(O)c1Cc1c(O)c2ccccc2oc1=O` [DICUMAROL]: > 30 µM.
Regarding `C[C@H]1O[C@@H](O[C@H]2[C@@H](O)C[C@H](O[C@H]3[C@@H](O)C[C@H](O[C@H]4CC[C@@]5(C)[C@H](CC[C@@H]6[C@@H]5CC[C@]5(C)[C@@H](C7=CC(=O)OC7)CC[C@]65O)C4)O[C@@H]3C)O[C@@H]2C)C[C@H](O)[C@@H]1O` [DIGITOXIN], the AC50 (in experiment [2]; at Thromboxane A2 receptor [3]; in experiment [4]; in experiment [5]; at Mu-type opioid receptor; in experiment [6]) was > 30 µM each time. Further, the AC50 (on Acetylcholinesterase; at Prothrombin; on D(1A) dopamine receptor; in experiment [7]; in [9]; at Thromboxane A2 receptor [8]) was > 30 µM each time. The AC50 (on Histamine H3 receptor; in experiment [1]) was > 30 µM throughout.
For the compound `O=C(CCCN1CC=C(n2c(=O)[nH]c3ccccc32)CC1)c1ccc(F)cc1` [DROPERIDOL], the AC50 (in [2]; on Thromboxane A2 receptor [3]; in experiment [4]; in experiment [5]; at Mu-type opioid receptor; in experiment [6]) was > 30 µM each time. In addition, the AC50 (on Acetylcholinesterase; on Prothrombin; on D(1A) dopamine receptor; in [7]; in experiment [9]; at Thromboxane A2 receptor [8]) was > 30 µM throughout. In addition, at Histamine H3 receptor, the AC50 was > 30 µM.
As to `O=C(O)CSCC(=O)NC1CCSC1=O` (configuration not stated) [ERDOSTEINE], the AC50 in experiment [1] was > 30 µM.
On the same count and under the same terms, with `COc1cccc(N(C)C(=S)Oc2ccc3c(c2)CCCC3)n1` [LIRANAFTATE] the figure was > 30 µM; with `C#C[C@]1(O)CC[C@H]2[C@@H]3CCc4cc(OC)ccc4[C@H]3CC[C@@]21C` [MESTRANOL], > 30 µM.
Take `N=C(N)c1ccc2cc(OC(=O)c3ccc(N=C(N)N)cc3)ccc2c1` [NAFAMOSTAT]: the AC50 in experiment [1] is 3.3 µM.
On to `CNC(=O)Oc1ccc2c(c1)[C@]1(C)CCN(C)[C@@H]1N2C` [PHYSOSTIGMINE], for which the AC50 was > 30 µM in [2]; > 30 µM on Thromboxane A2 receptor [3]; > 30 µM in experiment [4]; > 30 µM in experiment [5]; 5.74 µM on Mu-type opioid receptor; > 30 µM in experiment [6]. The AC50 is > 30 µM on Prothrombin; > 30 µM on D(1A) dopamine receptor; > 10 µM in [7]; > 30 µM in [9]; > 30 µM on Thromboxane A2 receptor [8]; > 30 µM at Histamine H3 receptor. Further, the AC50 in experiment [1] is > 30 µM.
As for `O=C(O)c1cc(O)c2c3nc4ccccc4oc-3cc(=O)c2n1` [PIRENOXINE], in [1], the AC50 was > 30 µM.
Turning to `NS(=O)(=O)c1cc(C(=O)O)cc(N2CCCC2)c1Oc1ccccc1` [PIRETANIDE], in experiment [1], the AC50 was > 30 µM.
For `CNCCCC1c2ccccc2C=Cc2ccccc21` [PROTRIPTYLINE], the AC50 in experiment [1] came to 1 µM.
With `CC(C)=CCOc1ccc(/C=C/C(=O)c2ccc(OCC=C(C)C)cc2OCC(=O)O)cc1` [SOFALCONE], in experiment [1], the AC50 was > 30 µM.
On the same count and under the same terms, the same measure for `O=C(CCCN1CCC2(CC1)C(=O)NCN2c1ccccc1)c1ccc(F)cc1` [SPIPERONE]: 0.22 µM; for `CN(C)c1cc(NC(=O)CNC(C)(C)C)c(O)c2c1C[C@H]1C[C@H]3[C@H](N(C)C)C(O)=C(C(N)=O)C(=O)[C@@]3(O)C(O)=C1C2=O` [TIGECYCLINE]: > 30 µM.
Turning to `OCCN1CCN(CC/C=C2/c3ccccc3Sc3ccc(Cl)cc32)CC1` [ZUCLOPENTHIXOL], in [1], the AC50 is 0.9 µM.

(Values after ChEMBL document CHEMBL5291721, “A preclinical secondary pharmacology resource illuminates target-adverse drug reaction associations of marketed drugs” (Nat Commun, 2023).)
